Our source for the EC50 values is US11827629B2, “CDGSH iron sulfur domain 2 activators and use thereof” (National Health Research Institutes, priority 2021, dated 2023).

In the assay the test system is Cisd2 promoter with firefly luciferase reporter. Description: Cisd2-luciferase reporter assay in HEK293-CISD2 cells. In kind it is cell-based. The note with it: Homo sapiens, 24 hours incubation, luciferase luminescence. The protocol: A typical in vitro screening method includes the following steps: (i) obtaining an initial level of Cisd2 in a batch of human embryonic kidney cells 293 (HEK-293 cells) that express Cisd2, (ii) treating the batch of HEK-293 cells with a compound of this invention, and (iii) analyzing the level of Cisd2 after the treatment, thereby determining the potency of the compound as a Cisd2 activator.
Compounds 1-109 were tested for increasing the level of Cisd2 in human embryonic kidney cells 293 (HEK293), a transfected cell line expressing Cisd2, using the Cisd2-luciferase reporter assay as follows.
The transfected HEK293 cells stably expressed Cisd2 promoter with firefly luciferase reporter (HEK293-CISD2). They were kept in Dulbecco's modified Eagle's medium (DMEM) (Gibco, New York, NY, USA). Culture medium was supplemented with 10% heat-inactivated fetal bovine serum (FBS), 2 mM L-Glutamine, 1 mM sodium pyruvate, 0.1% MEM Non-Essential Amino Acids, 1 ug/ml puromycin and 1% penicillin/streptomycin (HyClone, Logan, UT, USA). The cells were maintained at 37° C. in an incubator (Thermo Fisher Scientific, New York, NY, USA) with an atmosphere of 5% CO2. The stably transfected cells were seeded in 384-well plates at a density of 3×10^3 cells/well. After incubation with tested compounds at 37° C. for 24 hours, ONE-Glo™ Luciferase Assay System (Promega, Madison, WI, USA) was added at room temperature for 5 minutes to detect any luciferase activity. Luminescence intensity was registered using plate reader Victor^2V (PerkinElmer, Boston, MA, USA).
EC50 values in this table are presented in three classes, i.e., A: <1 μM, B: 1 μM-5 μM, and C: 5 μM-10 μM.

Compound `O=C(C[S+]([O-])c1ccc(Cl)s1)N1Cc2ccccc2C1` (stereo not drawn) [Compound 80, 2-[(5-chlorothiophen-2-yl)sulfinyl]-1-(1,3-dihydro-2H-isoindol-2-yl)ethanone] had an EC50 of 1000 to 5000 nM.

Compound `O=C(C[S+]([O-])c1ccccc1Cl)N1Cc2ccccc2C1` (stereo not drawn) [Compound 81, 2-[(2-chlorophenyl)sulfinyl]-1-(1,3-dihydro-2H-isoindol-2-yl)ethanone] showed an EC50 of less than 1000 nM.

For the compound `O=C(C[S+]([O-])c1cccc(F)n1)N1Cc2ccccc2C1` (stereo not drawn) [Compound 82, 1-(1,3-dihydro-2H-isoindol-2-yl)-2-[(6-fluoropyridin-2-yl)sulfinyl]ethanone], the EC50 is less than 1000 nM.

For `O=C(CC[S+]([O-])c1ccccc1Cl)N1Cc2ccccc2C1` (stereo not drawn) [Compound 83, 3-[(2-chlorophenyl)sulfinyl]-1-(1,3-dihydro-2H-isoindol-2-yl)propan-1-one], the EC50 was less than 1000 nM.

In the case of `O=C(CC[S+]([O-])c1ccccc1)N1Cc2ccccc2C1` (stereo not drawn) [Compound 84, 1-(1,3-dihydro-2H-isoindol-2-yl)-3-(phenylsulfinyl)propan-1-one], the EC50 was less than 1000 nM.

`O=C(CS(=O)(=O)c1ccccn1)N1Cc2ccc(O)cc2C1` [Compound 85, 1-(5-hydroxy-1,3-dihydro-2H-isoindol-2-yl)-2-(pyridin-2-ylsulfonyl)ethanone]: the concentration for a half-maximal effect (EC50) was less than 1000 nM.

In turn, `O=C(CS(=O)(=O)c1cccc(F)c1)N1Cc2ccccc2C1` [Compound 86, 1-(1,3-dihydro-2H-isoindol-2-yl)-2-[(3-fluorophenyl)sulfonyl]ethanone] had an EC50 of less than 1000 nM.

In the case of `O=C(CS(=O)(=O)c1ccc(F)cc1)N1Cc2ccccc2C1` [Compound 87, 1-(1,3-dihydro-2H-isoindol-2-yl)-2-[(4-fluorophenyl)sulfonyl]ethanone], the EC50 is less than 1000 nM.

`O=C(CS(=O)(=O)c1ccc(Cl)s1)N1Cc2ccccc2C1` [Compound 88, 2-[(5-chlorothiophen-2-yl)sulfonyl]-1-(1,3-dihydro-2H-isoindol-2-yl)ethanone] registered an EC50 of less than 1000 nM.

In turn, `O=C(CS(=O)(=O)c1cc(F)ccc1F)N1Cc2ccccc2C1` [Compound 89, 2-[(2,5-difluorophenyl)sulfonyl]-1-(1,3-dihydro-2H-isoindol-2-yl)ethanone] displayed an EC50 of 5000 to 10000 nM.

With `O=C(CS(=O)(=O)c1ccccc1F)N1Cc2ccccc2C1` [Compound 90, 1-(1,3-dihydro-2H-isoindol-2-yl)-2-[(2-fluorophenyl)sulfonyl]ethanone], the EC50 was less than 1000 nM.

As for `O=C(CS(=O)(=O)c1ccc(F)cc1F)N1Cc2ccccc2C1` [Compound 91, 2-[(2,4-difluorophenyl)sulfonyl]-1-(1,3-dihydro-2H-isoindol-2-yl)ethanone], the EC50 is less than 1000 nM.

In the case of `O=C(CS(=O)(=O)c1ccccc1F)N1Cc2ccc(F)cc2C1` [Compound 92, 1-(5-fluoro-1,3-dihydro-2H-isoindol-2-yl)-2-[(2-fluorophenyl)sulfonyl]ethanone], the concentration giving a half-maximal response (EC50) is less than 1000 nM.

On to `O=C(CS(=O)(=O)c1ccccc1)N1Cc2ccc(F)cc2C1` [Compound 93, 1-(5-fluoro-1,3-dihydro-2H-isoindol-2-yl)-2-(phenylsulfonyl)ethanone], for which the EC50 is less than 1000 nM.

Take `Cc1csc(S(=O)(=O)CC(=O)N2Cc3ccccc3C2)n1` [Compound 94, 1-(1,3-dihydro-2H-isoindol-2-yl)-2-[(4-methyl-1,3-thiazol-2-yl)sulfonyl]ethanone]: the EC50 was less than 1000 nM.

`O=C(CS(=O)(=O)c1ccccc1F)N1Cc2cc(F)c(F)cc2C1` [Compound 95, 1-(5,6-difluoro-1,3-dihydro-2H-isoindol-2-yl)-2-[(2-fluorophenyl)sulfonyl]ethanone] gave an EC50 of less than 1000 nM.

Compound `O=C(CS(=O)(=O)c1ccccc1)N1Cc2cccc(F)c2C1` [Compound 96, 1-(4-fluoro-1,3-dihydro-2H-isoindol-2-yl)-2-(phenylsulfonyl)ethanone] came in with an EC50 of less than 1000 nM.

For `O=C(CS(=O)(=O)c1cccc(F)n1)N1Cc2ccccc2C1` [Compound 97, 1-(1,3-dihydro-2H-isoindol-2-yl)-2-[(6-fluoropyridin-2-yl)sulfonyl]ethanone], the EC50 was less than 1000 nM.

Turning to `O=C(CS(=O)(=O)c1cccc(Cl)c1Cl)N1Cc2ccccc2C1` [Compound 98, 2-[(2,3-dichlorophenyl)sulfonyl]-1-(1,3-dihydro-2H-isoindol-2-yl)ethanone], the concentration giving a half-maximal response (EC50) was less than 1000 nM.

The compound `O=C(CS(=O)(=O)c1ccccc1Cl)N1Cc2ccccc2C1` [Compound 99, 2-[(2-chlorophenyl)sulfonyl]-1-(1,3-dihydro-2H-isoindol-2-yl)ethanone] returned an EC50 of less than 1000 nM.

In turn, `O=C(CS(=O)(=O)c1ccccn1)N1Cc2ccc(N3CCOCC3)cc2C1` [Compound 100, 1-[5-(morpholin-4-yl)-1,3-dihydro-2H-isoindol-2-yl]-2-(pyridin-2-ylsulfonyl)ethanone] showed an EC50 of 1000 to 5000 nM.

`O=C(CS(=O)(=O)c1ccc(F)cn1)N1Cc2ccccc2C1` [Compound 101, 1-(1,3-dihydro-2H-isoindol-2-yl)-2-[(5-fluoropyridin-2-yl)sulfonyl]ethanone] displayed an EC50 of less than 1000 nM.

In the case of `Cn1ccc(S(=O)(=O)CC(=O)N2Cc3ccccc3C2)n1` [Compound 102, 1-(1,3-dihydro-2H-isoindol-2-yl)-2-[(1-methyl-1H-pyrazol-3-yl)sulfonyl]ethanone], the EC50 was 1000 to 5000 nM.

`O=C(CS(=O)(=O)c1ncccc1F)N1Cc2ccccc2C1` [Compound 103, 1-(1,3-dihydro-2H-isoindol-2-yl)-2-[(3-fluoropyridin-2-yl)sulfonyl]ethanone] yielded an EC50 of less than 1000 nM.

As to `O=C(CS(=O)(=O)c1ncco1)N1Cc2ccccc2C1` [Compound 104, 1-(1,3-dihydro-2H-isoindol-2-yl)-2-(1,3-oxazol-2-ylsulfonyl)ethanone], the EC50 is less than 1000 nM.

`O=C(CS(=O)(=O)c1ccc(C(F)F)s1)N1Cc2ccccc2C1` [Compound 105, 2-{[5-(difluoromethyl)thiophen-2-yl]sulfonyl}-1-(1,3-dihydro-2H-isoindol-2-yl)ethanone] displayed an EC50 of 5000 to 10000 nM.

In turn, `O=C(CCS(=O)(=O)c1ccccc1Cl)N1Cc2ccccc2C1` [Compound 106, 3-[(2-chlorophenyl)sulfonyl]-1-(1,3-dihydro-2H-isoindol-2-yl)propan-1-one] came in with a concentration giving a half-maximal response (EC50) of less than 1000 nM.

`O=C(CCS(=O)(=O)c1ccccc1)N1Cc2ccccc2C1` [Compound 107, 1-(1,3-dihydro-2H-isoindol-2-yl)-3-(phenylsulfonyl)propan-1-one] displayed an EC50 of less than 1000 nM.

In turn, `O=C(CCS(=O)(=O)c1cccc(F)n1)N1Cc2ccccc2C1` [Compound 108, 1-(1,3-dihydro-2H-isoindol-2-yl)-3-[(6-fluoropyridin-2-yl)sulfonyl]propan-1-one] came in with a concentration giving a half-maximal response (EC50) of 1000 to 5000 nM.

The compound `O=C(CS(=O)(=O)c1ncco1)N1Cc2ccc(F)cc2C1` [Compound 109, 1-(5-fluoro-1,3-dihydro-2H-isoindol-2-yl)-2-(1,3-oxazol-2-ylsulfonyl)ethanone] registered an EC50 of less than 1000 nM.

What is called EC50 is the midpoint of the concentration-response curve. High values mean lower potency in that assay, low ones higher potency in that assay.
